Counter-ions that a name gives are not always drawn.
Columns and labels:
Assay in all cases: automated whole-cell patch clamp (PatchXpress), peak current
Format in all cases: cell-based
[1] = biological target: T1, Kv 1.4 (Homo sapiens, UniProt P22459)
T1 construct: gene KCNA4; cDNA stably transfected in HEK293 cells; expressed alone (homotetramer)
Text: automated whole-cell patch clamp (PatchXpress), peak current on Kv 1.4

[2] = biological target: T2, Kv 1.2 (Homo sapiens, UniProt P16389)
T2 construct: gene KCNA2; cDNA stably transfected in HEK293 cells; expressed alone (homotetramer)
T2 sequence (P16389 whole entry): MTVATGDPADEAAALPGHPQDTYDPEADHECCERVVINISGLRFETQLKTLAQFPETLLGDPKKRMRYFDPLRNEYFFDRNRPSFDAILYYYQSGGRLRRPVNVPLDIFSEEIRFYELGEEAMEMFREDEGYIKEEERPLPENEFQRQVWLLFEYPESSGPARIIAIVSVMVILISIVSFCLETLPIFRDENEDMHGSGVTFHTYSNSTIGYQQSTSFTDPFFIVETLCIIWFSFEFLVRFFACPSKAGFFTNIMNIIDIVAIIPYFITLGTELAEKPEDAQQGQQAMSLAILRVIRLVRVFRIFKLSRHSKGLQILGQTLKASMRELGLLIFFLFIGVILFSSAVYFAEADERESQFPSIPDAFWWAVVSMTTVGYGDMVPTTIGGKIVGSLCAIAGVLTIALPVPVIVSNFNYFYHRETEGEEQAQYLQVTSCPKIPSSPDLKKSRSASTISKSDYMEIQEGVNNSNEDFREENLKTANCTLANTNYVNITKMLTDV
Text: automated whole-cell patch clamp (PatchXpress), peak current on Kv 1.2

[3] = biological target: T3, Kv 1.1 (Homo sapiens, UniProt Q09470)
T3 construct: gene KCNA1; cDNA stably transfected in HEK293 cells; expressed alone (homotetramer)
T3 sequence (Q09470 whole entry): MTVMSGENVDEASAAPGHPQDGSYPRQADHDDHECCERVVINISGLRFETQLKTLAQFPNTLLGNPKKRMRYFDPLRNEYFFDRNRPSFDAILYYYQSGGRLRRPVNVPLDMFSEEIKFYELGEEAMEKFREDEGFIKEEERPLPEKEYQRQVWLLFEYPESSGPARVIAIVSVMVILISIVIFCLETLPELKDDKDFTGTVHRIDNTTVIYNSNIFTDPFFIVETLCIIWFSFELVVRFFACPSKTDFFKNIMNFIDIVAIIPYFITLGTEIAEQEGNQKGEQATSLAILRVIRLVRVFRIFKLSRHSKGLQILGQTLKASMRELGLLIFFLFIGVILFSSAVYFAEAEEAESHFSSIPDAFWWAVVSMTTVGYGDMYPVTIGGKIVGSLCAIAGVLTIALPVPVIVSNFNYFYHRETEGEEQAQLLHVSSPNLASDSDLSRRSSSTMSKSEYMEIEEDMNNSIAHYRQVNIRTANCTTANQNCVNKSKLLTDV
Text: automated whole-cell patch clamp (PatchXpress), peak current on Kv 1.1

T1 sequence (P22459 whole entry): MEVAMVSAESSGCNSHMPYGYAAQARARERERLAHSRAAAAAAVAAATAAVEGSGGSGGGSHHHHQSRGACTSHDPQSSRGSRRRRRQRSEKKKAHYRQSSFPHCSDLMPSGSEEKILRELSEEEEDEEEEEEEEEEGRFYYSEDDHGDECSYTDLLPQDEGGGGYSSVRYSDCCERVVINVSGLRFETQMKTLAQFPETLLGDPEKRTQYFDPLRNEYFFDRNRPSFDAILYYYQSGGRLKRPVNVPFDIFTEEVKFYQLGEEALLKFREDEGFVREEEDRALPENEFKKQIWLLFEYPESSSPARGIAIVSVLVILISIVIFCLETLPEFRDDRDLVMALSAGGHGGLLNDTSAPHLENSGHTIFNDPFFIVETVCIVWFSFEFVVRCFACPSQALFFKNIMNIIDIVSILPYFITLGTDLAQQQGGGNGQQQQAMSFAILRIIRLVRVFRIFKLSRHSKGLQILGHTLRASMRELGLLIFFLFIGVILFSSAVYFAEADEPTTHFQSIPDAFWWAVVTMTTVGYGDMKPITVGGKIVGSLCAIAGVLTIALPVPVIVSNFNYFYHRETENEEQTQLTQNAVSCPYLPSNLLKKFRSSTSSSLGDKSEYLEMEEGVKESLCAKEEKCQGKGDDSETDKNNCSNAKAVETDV

Question: For Nc1ccncc1O [3-hydroxy-4-aminopyridine], which IC50 [1] is on record?
Answer: 23200 µM

Question: What about the IC50 [2] of the same compound?
Answer: 23700 µM

Question: What about the IC50 [3] of the same compound?
Answer: 7890 µM

Question: With Nc1ccncc1OS(=O)(=O)O [3-hydroxy-4-aminopyridine sulfate] as the compound, how does the IC50 [1] read?
Answer: > 50000 µM

Question: And the IC50 [2]?
Answer: 21400 µM

Question: What about the IC50 [3] of the same compound?
Answer: 30300 µM
